For series [1], the system named is A204. The series can be described thus: Antiproliferative activity of compound was tested against rhabdomyosarcoma (A-204) human tumor cells. It is filed as functional, cell-based.
In series [2] the test system is IGR-37 cell line. Kind of series: Antiproliferative activity of compound was tested against melanoma (IgR-37) human tumor cells. It is filed as functional, cell-based.
Series [3] has as its system MCF7. Kind of series: Antiproliferative activity of compound was tested against mammary carcinoma (MCF-7) human tumor cells. It is filed as functional, cell-based.
Series [4] relates to WiDr. The series can be described thus: Antiproliferative activity of compound was tested against colon carcinoma (WiDr) human tumor cells. Format: functional, cell-based.
Series [5] has as its system T-24. The series can be described thus: Antiproliferative activity of compound was tested against bladder carcinoma (T-24) human tumor cells. It is filed as functional, cell-based.
For series [6], the system named is beta-glucuronidase. Kind of series: Compound was tested for enzyme activation with 0.03 U/mL beta-glucuronidase by measuring its half-life. The settings on record: beta-glucuronidase (isolated enzyme).
In series [7] the test system is EVSA-T. Kind of series: Antiproliferative activity of compound was tested against mammary carcinoma (EVSAT) human tumor cells. Format: functional, cell-based.
Series [8] has as its system IGROV-1. The series can be described thus: Antiproliferative activity of compound was tested against ovarian carcinoma (IGROV) human tumor cells. It is filed as functional, cell-based.
Series [9] has as its system M19-MEL. The series can be described thus: Antiproliferative activity of compound was tested against melanoma (M-19) human tumor cells. It is filed as functional, cell-based.
Series [10] has as its system A498. The series can be described thus: Antiproliferative activity of compound was tested against renal cancer (A-498) human tumor cells. It is filed as functional, cell-based.
In series [11] the test system is beta-glucosidase. Kind of series: Compound was tested for enzyme activation with 0.3 U/mL beta-glucosidase by measuring its half-life. The settings on record: beta-glucosidase (isolated enzyme).

The source of these data is ChEMBL document CHEMBL1128100, “Synthesis and evaluation of novel daunomycin-phosphate-sulfate --glucuronide and --glucoside prodrugs for application in adept” (Bioorg Med Chem Lett, 1995).

Structures are written as SMILES. Where a name gives a salt, the structure may show the parent alone.

For `COc1cccc2c1C(=O)c1c(O)c3c(c(O)c1C2=O)C[C@@](O)(C(C)=O)C[C@@H]3O[C@H]1C[C@@H](N)[C@H](OP(=O)(O)O)[C@H](C)O1`, the IC50 amounted to 17 µM in [1]; 45 µM in [2]; 89 µM in [3] (Homo sapiens, MCF7); 58 µM in series [4] (Homo sapiens, WiDr); 3 µM in [5].
For `COc1cccc2c1C(=O)c1c(O)c3c(c(O)c1C2=O)C[C@@](O)(C(C)=O)C[C@@H]3O[C@H]1C[C@@H](NP(=O)(O)O)[C@H](O)[C@H](C)O1`, in that order: 17 µM, 96 µM, 370 µM, 10 µM and 2 µM.
With `COc1cccc2c1C(=O)c1c(O)c3c(c(O)c1C2=O)C[C@@](O)(C(C)=O)C[C@@H]3O[C@H]1C[C@@H](N)[C@H](OS(=O)(=O)O)[C@H](C)O1`, the IC50 in series [1] was 1.3 µM; in [2], 3000 µM; in [3] (Homo sapiens, MCF7), 870 µM; in [5] it was 5500 µM.
For `COc1cccc2c1C(=O)c1c(O)c3c(c(O)c1C2=O)C[C@@](O)(C(C)=O)C[C@@H]3O[C@H]1C[C@@H](NC(=O)O[C@@H]2O[C@@H](C(=O)[O-])[C@@H](O)[C@H](O)[C@@H]2O)[C@H](O)[C@H](C)O1.[Na+]`, the half-life in series [6] came to 137 h. Also, the IC50 amounted to 13500 µM in series [7] (evsa-t); 36900 µM in series [8] (igrov-1); 15800 µM in series [9] (m19-mel); 11200 µM in [3] (mcf7); 12100 µM in series [10] (a498).
On to `COc1cccc2c1C(=O)c1c(O)c3c(c(O)c1C2=O)C[C@@](O)(C(C)=O)C[C@@H]3O[C@H]1C[C@@H](NC(=O)O[C@@H]2O[C@@H](C(=O)O)[C@@H](O)[C@H](O)[C@@H]2O)[C@H](O)[C@H](C)O1`, for which the half-life in series [11] was > 133 h. In addition, the IC50 in [7] (evsa-t) was 280 µM; in series [8] (igrov-1), 520 µM; in [9] (m19-mel), 200 µM; in [3] (mcf7), 125 µM; in series [4] (widr), 370 µM; in series [10] (a498), 250 µM.
In the case of `COc1cccc2c1C(=O)c1c(O)c3c(c(O)c1C2=O)C[C@@](O)(C(C)=O)C[C@@H]3O[C@H]1C[C@H](N)[C@H](O)[C@H](C)O1` [DAUNORUBICIN HYDROCHLORIDE], the IC50 in [1] was 3 µM; in series [7] (Homo sapiens, EVSA-T) it was 2 µM; in [2], 11 µM; in series [8] (Homo sapiens, IGROV-1), 18 µM; in [9] (Homo sapiens, M19-MEL), 2 µM; in series [3] (Homo sapiens, MCF7), 2 µM. In addition, the IC50 is 7 µM in series [4] (Homo sapiens, WiDr); 2 µM in series [5]; 3 µM in series [10] (Homo sapiens, A498).
Turning to `COc1cccc2c1C(=O)c1c(O)c3c(c(O)c1C2=O)C[C@@](O)(C(C)=O)C[C@@H]3O[C@H]1C[C@@H](NS(=O)(=O)O)[C@H](O)[C@H](C)O1`, the IC50 in [1] was 4.9 µM; in [3] (Homo sapiens, MCF7), 10400 µM.

In general, IC50 refers to the point on the concentration scale where inhibition reaches its midpoint. Read a low IC50 as inhibition by little substance. The half-life is the time in which the quantity being followed falls by half. The low end stands for rapid decline, the high end for slow decline.
